Experimental data reported in ChEMBL document CHEMBL3758139, “Novel thiol-based histone deacetylase inhibitors bearing 3-phenyl-1H-pyrazole-5-carboxamide scaffold as surface recognition motif: Design, synthesis and SAR study” (Bioorg Med Chem Lett, 2016).

How the values were obtained:
Histone deacetylase = test: Inhibition of HDAC in human HeLa nuclear extract; format: protein assay
Histone deacetylase 1 = Histone deacetylase 1 (Homo sapiens, UniProt Q13547); test: Inhibition of recombinant human HDAC1
[1] = target: T1, Protein deacetylase HDAC6 (Homo sapiens, UniProt Q9UBN7); test: Inhibition of recombinant human HDAC6
T1 sequence (Q9UBN7 whole entry): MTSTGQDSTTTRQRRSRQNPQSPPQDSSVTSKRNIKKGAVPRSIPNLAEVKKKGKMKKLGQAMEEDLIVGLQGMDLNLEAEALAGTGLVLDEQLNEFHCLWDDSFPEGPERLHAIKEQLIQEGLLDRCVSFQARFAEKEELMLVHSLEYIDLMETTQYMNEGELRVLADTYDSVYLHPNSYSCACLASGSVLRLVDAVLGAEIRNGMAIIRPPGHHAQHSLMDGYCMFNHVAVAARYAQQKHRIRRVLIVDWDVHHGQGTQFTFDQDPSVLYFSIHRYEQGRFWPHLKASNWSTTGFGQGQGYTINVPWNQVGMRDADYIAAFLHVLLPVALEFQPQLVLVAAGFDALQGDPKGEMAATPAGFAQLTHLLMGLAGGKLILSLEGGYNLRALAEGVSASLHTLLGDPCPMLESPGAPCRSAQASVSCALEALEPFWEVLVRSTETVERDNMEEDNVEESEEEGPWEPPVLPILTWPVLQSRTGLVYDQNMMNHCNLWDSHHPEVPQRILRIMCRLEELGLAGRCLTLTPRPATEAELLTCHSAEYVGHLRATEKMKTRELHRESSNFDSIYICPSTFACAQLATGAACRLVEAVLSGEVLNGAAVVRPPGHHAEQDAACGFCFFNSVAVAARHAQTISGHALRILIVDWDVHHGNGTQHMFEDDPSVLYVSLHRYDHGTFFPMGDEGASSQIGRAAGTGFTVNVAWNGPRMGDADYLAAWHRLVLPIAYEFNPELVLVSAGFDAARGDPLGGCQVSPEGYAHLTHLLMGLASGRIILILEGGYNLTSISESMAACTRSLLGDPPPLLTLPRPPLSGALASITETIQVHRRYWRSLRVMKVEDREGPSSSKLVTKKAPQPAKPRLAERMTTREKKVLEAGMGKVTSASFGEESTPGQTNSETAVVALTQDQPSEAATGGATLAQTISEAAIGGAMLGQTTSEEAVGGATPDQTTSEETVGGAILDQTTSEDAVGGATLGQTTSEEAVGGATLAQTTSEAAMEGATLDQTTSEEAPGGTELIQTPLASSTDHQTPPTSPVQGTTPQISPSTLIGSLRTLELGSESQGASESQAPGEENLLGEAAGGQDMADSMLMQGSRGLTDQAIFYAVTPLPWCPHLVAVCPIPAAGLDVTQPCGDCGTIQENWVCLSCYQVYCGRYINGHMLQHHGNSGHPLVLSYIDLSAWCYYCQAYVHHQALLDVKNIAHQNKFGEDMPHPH

[2] = Retention time of the compound; format: physicochemical

Chain of Histone deacetylase 1 (Q13547 whole entry): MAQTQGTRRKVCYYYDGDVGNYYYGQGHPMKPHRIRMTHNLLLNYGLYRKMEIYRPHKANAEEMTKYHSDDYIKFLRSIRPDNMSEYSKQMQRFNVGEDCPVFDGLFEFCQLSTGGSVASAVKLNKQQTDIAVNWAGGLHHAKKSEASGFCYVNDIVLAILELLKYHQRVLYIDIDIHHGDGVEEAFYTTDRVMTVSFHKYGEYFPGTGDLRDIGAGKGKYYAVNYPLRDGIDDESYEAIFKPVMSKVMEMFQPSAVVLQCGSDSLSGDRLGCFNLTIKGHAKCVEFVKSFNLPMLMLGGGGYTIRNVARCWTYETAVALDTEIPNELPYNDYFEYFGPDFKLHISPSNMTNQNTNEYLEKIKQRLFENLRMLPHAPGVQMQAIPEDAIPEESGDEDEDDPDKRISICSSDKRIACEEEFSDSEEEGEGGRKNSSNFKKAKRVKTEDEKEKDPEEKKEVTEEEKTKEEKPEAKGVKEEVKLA

Row | SMILES | IC50 (Histone deacetylase) [nM] | IC50 (Histone deacetylase 1) [nM] | IC50 [1] [nM] | Retention_time [2] [min]
1 | CCCn1nc(-c2ccc(F)cc2)cc1C(=O)NCCCCCCS | > 10000 | > 10000 | > 10000 | 6.96
2 | O=C(NCCCCCCS)c1cc(-c2ccc(F)cc2)n(Cc2ccccc2)n1 | > 10000 | > 10000 | > 10000 | 5.49
3 | CCn1nc(-c2ccc(F)cc2)cc1C(=O)NCCCCCCS | > 10000 | > 10000 | 5000 | 5.79
4 | O=C(O)CCCn1nc(C(=O)NCCCCCCS)cc1-c1ccc(F)cc1 | 810 | 1800 | 450 | 6.9
5 | O=C(O)CCCn1nc(-c2ccc(F)cc2)cc1C(=O)NCCCCCCS | 80 | 130 | 90 | 13.54
6 | O=C(NCCCCCS)c1cc(-c2ccc(F)cc2)on1 | 3000 | 2100 | 1300 | 5
7 | O=C(CS)NCCCNC(=O)c1cc(-c2ccc(F)cc2)[nH]n1 | 1500 | 1400 | 880 | 3.25
8 | Cc1c(-c2ccc(F)cc2)nn(CCCO)c1C(=O)NCCCCCCS | > 10000 | > 10000 | 5000 | 3.71
9 | O=C(NCCCCCCS)c1cc(-c2ccc(F)cc2)n[nH]1 | 690 | 580 | 760 | 3.37
10 | O=C(NCCCCCCS)c1cc(-c2ccc(F)cc2)n(CCCCO)n1 | 540 | 440 | 220 | 3.15
11 | CCn1nc(C(=O)NCCCCCCS)cc1-c1ccc(F)cc1 | > 10000 | > 10000 | > 10000 | 4.29
12 | O=C(CCS)NCCCNC(=O)c1cc(-c2ccc(F)cc2)[nH]n1 | > 10000 | > 10000 | > 10000 | 2.66
13 | O=C(NCCCCCCS)c1cc(-c2ccc(F)cc2)nn1CCO | 690 | 330 | 910 | 2.86
14 | O=C(NCCCCCCS)c1cc(-c2ccc(F)cc2)nn1CCCCO | 170 | 250 | 140 | 3.66
15 | O=C(O)Cn1nc(C(=O)NCCCCCCS)cc1-c1ccc(F)cc1 | 660 | 1900 | 250 | 7.77
16 | O=C(NCCCCCCS)c1cc(-c2ccc(F)cc2)nn1CCCO | 1200 | 1300 | 470 | 3.81
17 | CCC(C)n1nc(-c2ccc(F)cc2)cc1C(=O)NCCCCCCS (centres undefined) | > 10000 | > 10000 | > 10000 | 8.4
18 | O=C(O)CCn1nc(C(=O)NCCCCCCS)cc1-c1ccc(F)cc1 | 400 | 2700 | 330 | 2.88
19 | O=C(CCS)NCCNC(=O)c1cc(-c2ccc(F)cc2)[nH]n1 | > 10000 | > 10000 | > 10000 | 2.74
20 | Cn1nc(-c2ccc(F)cc2)cc1C(=O)NCCCCCCS | 3200 | > 10000 | 2900 | 5.16
21 | CC(C)n1nc(-c2ccc(F)cc2)cc1C(=O)NCCCCCCS | > 10000 | > 10000 | 7400 | 7.17
22 | O=C(NCCCCCS)c1cc(-c2ccc(F)cc2)[nH]n1 | 1900 | 2200 | 1100 | 2.85

Row | SMILES | IC50 (Histone deacetylase) [nM] | IC50 (Histone deacetylase 1) [nM] | IC50 [1] [nM] | Retention_time [2] [min]
23 | CCCn1nc(C(=O)NCCCCCCS)cc1-c1ccc(F)cc1 | > 10000 | > 10000 | > 10000 | 5.2
24 | O=C(O)Cn1nc(-c2ccc(F)cc2)cc1C(=O)NCCCCCCS | 160 | 220 | 40 | 3.77
25 | Cn1nc(C(=O)NCCCCCCS)cc1-c1ccc(F)cc1 | > 10000 | > 10000 | 6900 | 3.86
26 | O=C(CS)NCCNC(=O)c1cc(-c2ccc(F)cc2)[nH]n1 | 2200 | 2300 | 1800 | 2.85
27 | Cc1c(-c2ccc(F)cc2)n[nH]c1C(=O)NCCCCCCS | > 10000 | > 10000 | 4400 | 4.08
28 | O=C(NCCCCS)c1cc(-c2ccc(F)cc2)on1 | > 10000 | > 10000 | 4900 | 4.24
29 | O=C(NCCS)c1cc(-c2ccc(F)cc2)on1 | > 10000 | > 10000 | 6500 | 2.91
30 | O=C(NCCCS)c1cc(-c2ccc(F)cc2)on1 | > 10000 | > 10000 | 5800 | 3.37
31 | Cc1c(-c2ccc(F)cc2)nn(C)c1C(=O)NCCCCCCS | > 10000 | > 10000 | > 10000 | 4.77
32 | O=C(O)CCn1nc(-c2ccc(F)cc2)cc1C(=O)NCCCCCCS | 300 | 650 | 210 | 2.99
33 | O=C(NCCCCCCS)c1cc(-c2ccc(F)cc2)n(CCO)n1 | 2100 | 3300 | 1400 | 3.13
34 | O=C(CS)NCCCCNC(=O)c1cc(-c2ccc(F)cc2)[nH]n1 | 8600 | > 10000 | 2100 | 2.94
35 | CCC(C)n1nc(C(=O)NCCCCCCS)cc1-c1ccc(F)cc1 (centres undefined) | > 10000 | > 10000 | > 10000 | 5.87
36 | CCCCn1nc(-c2ccc(F)cc2)cc1C(=O)NCCCCCCS | > 10000 | > 10000 | > 10000 | 11.92
37 | O=C(NCCCCCCS)c1cc(-c2ccc(F)cc2)on1 | 980 | 850 | 880 | 5.67
38 | CC(C)n1nc(C(=O)NCCCCCCS)cc1-c1ccc(F)cc1 | > 10000 | > 10000 | > 10000 | 4.93
39 | O=C(CCS)NCCCCNC(=O)c1cc(-c2ccc(F)cc2)[nH]n1 | > 10000 | > 10000 | > 10000 | 2.54
40 | CCCCn1nc(C(=O)NCCCCCCS)cc1-c1ccc(F)cc1 | > 10000 | > 10000 | > 10000 | 6.79
41 | O=C(NCCCCCCS)c1cc(-c2ccc(F)cc2)n(CCCO)n1 | 3100 | 3600 | 850 | 3.19
42 | O=C(NCCCCCCS)c1cc(-c2ccc(F)cc2)nn1Cc1ccccc1 | > 10000 | > 10000 | > 10000 | 7.52
43 | C/C=C1\NC(=O)[C@H]2CSSCC/C=C/[C@H](CC(=O)N[C@H](C(C)C)C(=O)N2)OC(=O)[C@H](C(C)C)NC1=O [ROMIDEPSIN] | – | 140 | – | –
